One test deals with MDA-MB-231 cells. The test is described as follows: CellTiter-Glo Luminescent Cell Viability Assay on ER-negative breast cancer MDA-MB-231 cells. Type of test: cell-based. The following applies: average ± standard deviation when tested more than 3 times, read-out: Inhibition of the viability of breast cancer cells, IC50. The procedure:
A: In Vitro CellTiter-Glo® Luminescent Cell Viability Assay on ER-Negative Breast Cancer MDA-MB-231 Cells:
MDA-MB-231 cells were maintained at 37° C., under 5% CO2 atmosphere in DMEM containing 10% fetal calf serum. The cells were seeded on 96-well plate at a density of 6×10^3 cells per well. MDA-MB-231 cells were treated with a test compound dissolved in DMSO at the concentrations of zero, 0.3 μM, 0.5 μM, 1 μM, 2 μM, 3 μM, 5 μM, 10 μM, 20 μM, 30 μM, 50 μM and 100 μM for 72 hours. Treated cells were examined by CellTiter-Glo® Luminescent Cell Viability Assay Kit (Promega), and luminescence values were recorded with Envision.
A general note: ATP-based viability assays read luminescence as a measure of living cells.

In a further test the test system is MCF7 cells. Briefly: CellTiter-Glo Luminescent Cell Viability Assay on ER-positive breast cancer MCF-7 cells. The class given is cell-based, human. The following applies: average ± standard deviation when tested more than 3 times, read-out: Inhibition of the viability of breast cancer cells, IC50. An excerpt: B: In Vitro CellTiter-Glo® Luminescent Cell Viability Assay on ER-Positive Breast Cancer MCF-7 Cells:
MCF7 cells are breast cancer cell lines that highly express ER-66, ER-46 and ER-36. (Relevance of breast cancer cell lines as models for breast tumours: an update. Marc Lacroix, Guy Leclercq, Breast Cancer Research and Treatment (2004) 83, 249-289; Wang et al., Proc. Natl. Acad. Sci. U.S.A. 103:9063-9068 (2006)). MCF7 cells were obtained from ATCC and maintained in Dulbecco's Modified Eagles Medium (DMEM) and 10% fetal calf serum at 37° C., under 5% CO2 atmosphere. The cells were seeded on 96-well plate at a density of 6×10^3 cells per well. MCF7 cells were treated with a test compound dissolved in DMSO at the concentrations of zero, 0.3 μM, 0.5 μM, 1 μM, 2 μM, 3 μM, 5 μM, 10 μM, 20 μM, 30 μM, 50 μM and 100 μM for 72 hours. Treated cells were examined by CellTiter-Glo® Luminescent Cell Viability Assay Kit (Promega), and luminescence values were recorded with Envision.

Like-named read-outs stand apart in the source and are kept apart here.

As a reminder, the IC50 is the concentration that inhibits the measured activity by half. Regarding `COc1c(-c2ccc(C(=O)O)cc2)oc2c(CC=C(C)C)c(O)c(CC=C(C)C)c(O)c2c1=O` [Compound 56, 4-[5,7-dihydroxy-3-methoxy-6,8-di(3-methyl-2-butenyl)-4-oxo-4H-benzopyran-2-yl]benzoic acid], the IC50 in the test on MDA-MB-231 cells (Homo sapiens, MDA-MB-231, 72 h) is 5.96 µM; with MCF7 cells (Homo sapiens, MCF7, 72 h) it was 29.2 µM. Consider `COc1c(-c2cocn2)oc2c(CC=C(C)C)c(O)c(CC=C(C)C)c(O)c2c1=O` [Compound 44, 2-(oxazol-4-yl)-5,7-dihydroxy-3-methoxy-6,8-di(3-methyl-2-buten-1-yl)-4H-benzopyran-4-one], for which the IC50 was more than 100 µM in the test with MDA-MB-231 cells (Homo sapiens, MDA-MB-231, 72 h) and more than 100 µM in the test with MCF7 cells (Homo sapiens, MCF7, 72 h). As to `COc1c(-c2ccc(C(C)O)cc2)oc2c(CC=C(C)C)c(O)c(CC=C(C)C)c(O)c2c1=O` (centres unmarked) [Compound 67], the IC50 in the test with MDA-MB-231 cells (72 hours) was 3.27 µM; with MCF7 cells (72 hours), 4.66 µM. `COc1c(-c2ccncc2)oc2c(CC=C(C)C)c(O)c(CC=C(C)C)c(O)c2c1=O` [Compound 31, 2-(pyridin-4-yl)-5,7-dihydroxy-3-methoxy-6,8-di(3-methyl-2-buten-1-yl)-4H-benzopyran-4-one]: the IC50 in the test on MDA-MB-231 cells (Homo sapiens, MDA-MB-231, 72 h) was 25.1 µM; in the test with MCF7 cells (Homo sapiens, MCF7, 72 h), more than 100 µM.

In the case of `CC(C)=CCc1c(O)c(CC=C(C)C)c2oc(-c3cccnc3)cc(=O)c2c1O` [Compound 92, 2-(pyridin-3-yl)-5,7-dihydroxy-6,8-di(3-methyl-2-buten-1-yl)-4H-benzopyran-4-one], the 50% inhibitory concentration (IC50) in the test on MDA-MB-231 cells (Homo sapiens, MDA-MB-231, 72 h) is 21.5 µM; in the test on MCF7 cells (Homo sapiens, MCF7, 72 h) it was more than 100 µM.

As for `COc1c(-c2cccs2)oc2c(CC=C(C)C)c(O)c(CC=C(C)C)c(O)c2c1=O` [Compound 39, 2-(thiophen-2-yl)-5,7-dihydroxy-3-methoxy-6,8-di(3-methyl-2-buten-1-yl)-4H-benzopyran-4-one], the IC50 in the test with MDA-MB-231 cells (Homo sapiens, MDA-MB-231, 72 h) was more than 100 µM; in the test on MCF7 cells (Homo sapiens, MCF7, 72 h), 65.8 µM. With `CC(C)=CCc1c(O)c(CC=C(C)C)c2oc(-c3ccc(Cl)c(F)c3)cc(=O)c2c1O` [Compound 86, 2-(3-fluoro-4-chlorophenyl)-5,7-dihydroxy-6,8-di(3-methyl-2-buten-1-yl)-4H-benzopyran-4-one], the IC50 is more than 100 µM with MDA-MB-231 cells (Homo sapiens, MDA-MB-231, 72 h) and more than 100 µM in the test with MCF7 cells (Homo sapiens, MCF7, 72 h).

Regarding “2-(benzo[b]thiazol-2-yl)-5,7-dihydroxy-3-methoxy-6,8-di(3-3-methyl-2-buten-1-yl)-4H-benzopyran-4-one [Compound 49]”, the IC50 with MDA-MB-231 cells (72 hours) turned out to be 17.9 µM; in the test on MCF7 cells (72 hours), 17.8 µM. For `COc1cc(-c2oc3c(CC=C(C)C)c(O)c(CC=C(C)C)c(O)c3c(=O)c2OC)ccc1F` [Compound 9, 2-(4-fluoro-3-methoxyphenyl)-5,7-dihydroxy-3-methoxy-6,8-di(3-methyl-2-butylene-1-yl)-4H-benzopyran-4-one], the IC50 in the test on MDA-MB-231 cells (72 hours) and with MCF7 cells (72 hours) was more than 100 µM in each case. For the molecule `CC(C)=CCc1c(O)c(CC=C(C)C)c2oc(-c3ccc(Cl)c(F)c3)c(C)c(=O)c2c1O` [Compound 94, 2-(3-fluoro-4-chlorophenyl)-3-methyl-5,7-dihydroxy-6,8-di(3-methyl-2-buten-1-yl)-4H-benzopyran-4-one], the IC50 with MDA-MB-231 cells (Homo sapiens, MDA-MB-231, 72 h) was determined as 31.3 µM; in the test with MCF7 cells (Homo sapiens, MCF7, 72 h), 15.6 µM. As to `CC(C)=CCc1c(O)c(CC=C(C)C)c2oc(-c3ccc(F)cc3)c(O)c(=O)c2c1O` [Compound 97, 2-(4-fluorophenyl)-3,5,7-trihydroxy-6,8-di(3-methyl-2-buten-1-yl)-4H-benzopyran-4-one], the IC50 in the test on MDA-MB-231 cells (Homo sapiens, MDA-MB-231, 72 h) stood at 21.4 µM. As to `COc1ccc(-c2oc3c(CC=C(C)C)c(O)c(CC=C(C)C)c(O)c3c(=O)c2OC)cc1F` [Compound 1, 2-(3-fluoro-4-methoxyphenyl)-5,7-dihydroxy-3-methoxy-6,8-di(3-methyl-2-buten-1-yl)-4H-benzopyran-4-one], the IC50 was determined as 14.2 ± 5.18 µM with MDA-MB-231 cells (Homo sapiens, MDA-MB-231, 72 h) and 16 µM in the test with MCF7 cells (Homo sapiens, MCF7, 72 h). As to `COc1c(-c2ccc(C)cc2)oc2c(CC=C(C)C)c(O)c(CC=C(C)C)c(O)c2c1=O` [Compound 16, 2-(4-methylphenyl)-5,7-dihydroxy-3-methoxy-6,8-di(3-methyl-2-butylene-1-yl)-4H-benzopyran-4-one], the IC50 in the test with MDA-MB-231 cells (72 hours) was 16.3 µM; in the test on MCF7 cells (72 hours), more than 100 µM. For the molecule `COc1c(C2CCC2)oc2c(CC=C(C)C)c(O)c(CC=C(C)C)c(O)c2c1=O` [Compound 35, 2-cyclobutyl-5,7-dihydroxy-3-methoxy-6,8-di(3-methyl-2-buten-1-yl)-4H-benzopyran-4-one], the IC50 with MDA-MB-231 cells (Homo sapiens, MDA-MB-231, 72 h) was more than 100 µM; in the test on MCF7 cells (Homo sapiens, MCF7, 72 h), 88.1 µM.

For `COc1c(CC=C(C)C)cc2c(=O)c(OC)c(-c3ccc(F)c(F)c3)oc2c1CC=C(C)C` [Compound 81B, 2-(3,4-difluorophenyl)-3,7-dimethoxy-6,8-di(3-methyl-2-buten-1-yl)-4H-benzopyran-4-one], the IC50 in the test on MDA-MB-231 cells (Homo sapiens, MDA-MB-231, 72 h) was more than 100 µM; with MCF7 cells (Homo sapiens, MCF7, 72 h), more than 100 µM.

For the molecule `CCOc1ccc(-c2oc3c(CC=C(C)C)c(O)c(CC=C(C)C)c(O)c3c(=O)c2OC)cc1F` [Compound 23, 2-(3-fluoro-4-ethoxylphenyl)-5,7-dihydroxy-3-methoxy-6,8-di(3-methyl-2-buten-1-yl)-4H-benzopyran-4-one], the IC50 in the test with MDA-MB-231 cells (Homo sapiens, MDA-MB-231, 72 h) turned out to be 28.8 µM; with MCF7 cells (Homo sapiens, MCF7, 72 h) it was 20.1 µM. Consider `COc1c(-c2ccnc(F)c2)oc2c(CC=C(C)C)c(O)c(CC=C(C)C)c(O)c2c1=O` [Compound 51, 2-(2-fluoropyridin-4-yl)-5,7-dihydroxy-3-methoxy-6,8-di(3-methyl-2-buten-1-yl)-4H-benzopyran-4-one], for which the IC50 with MDA-MB-231 cells (Homo sapiens, MDA-MB-231, 72 h) is more than 100 µM; in the test on MCF7 cells (Homo sapiens, MCF7, 72 h), more than 100 µM. In the case of `COc1c(-c2cc3ccccc3o2)oc2c(CC=C(C)C)c(O)c(CC=C(C)C)c(O)c2c1=O` [Compound 50, 2-(benzofuran-2-yl)-5,7-dihydroxy-3-methoxy-6,8-di(3-methyl-2-buten-1-yl)-4H-benzopyran-4-one], the IC50 with MDA-MB-231 cells (Homo sapiens, MDA-MB-231, 72 h) came to 13.6 µM; with MCF7 cells (Homo sapiens, MCF7, 72 h), 20.4 µM. Regarding `CC(C)=CCc1c(O)c(CC=C(C)C)c2oc(-c3ccc(F)c(F)c3)c(C)c(=O)c2c1O` [Compound 93, 2-(3,4-difluorophenyl)-3-methyl-5,7-dihydroxy-6,8-di(3-methyl-2-buten-1-yl)-4H-benzopyran-4-one], the IC50 with MDA-MB-231 cells (Homo sapiens, MDA-MB-231, 72 h) was determined as 27.5 µM; in the test with MCF7 cells (Homo sapiens, MCF7, 72 h), 15.6 µM. `CC(C)=CCc1c(O)c(CC=C(C)C)c2oc(-c3ccc(Cl)c(F)c3)c(O)c(=O)c2c1O` [Compound 96, 2-(3-fluoro-4-chlorophenyl)-3,5,7-trihydroxy-6,8-di(3-methyl-2-buten-1-yl)-4H-benzopyran-4-one]: the IC50 with MDA-MB-231 cells (Homo sapiens, MDA-MB-231, 72 h) was 10.4 µM; in the test with MCF7 cells (Homo sapiens, MCF7, 72 h), more than 100 µM. The corresponding values for `COc1c(-c2cccc(F)c2)oc2c(CC=C(C)C)c(O)c(CC=C(C)C)c(O)c2c1=O` [Compound 3, 2-(3-fluorophenyl)-5,7-dihydroxy-3-methoxy-6,8-di(3-methyl-2-buten-1-yl)-4H-benzopyran-4-one] are 12.6 ± 2.4 µM and 10.4 ± 0.22 µM. The corresponding values for `COc1c(-c2nccn2C)oc2c(CC=C(C)C)c(O)c(CC=C(C)C)c(O)c2c1=O` [Compound 47, 2-(1-methyl-1H-imidazol-2-yl)-5,7-dihydroxy-3-methoxy-6,8-di(3-methyl-2-buten-1-yl)-4H-benzopyran-4-one] are 43.5 µM and more than 100 µM. The corresponding values for `CC(C)=CCc1c(O)c(CC=C(C)C)c2oc(-c3ccc(F)cc3)cc(=O)c2c1O` [Compound 89, 2-(4-fluorophenyl)-5,7-dihydroxy-6,8-di(3-methyl-2-buten-1-yl)-4H-benzopyran-4-one] are more than 100 µM and more than 100 µM. Take `COc1c(-c2ccoc2)oc2c(CC=C(C)C)c(O)c(CC=C(C)C)c(O)c2c1=O` [Compound 42, 2-(furan-3-yl)-5,7-dihydroxy-3-methoxy-6,8-di(3-methyl-2-buten-1-yl)-4H-benzopyran-4-one]: the IC50 turned out to be 28.7 µM with MDA-MB-231 cells (Homo sapiens, MDA-MB-231, 72 h) and 12.4 µM with MCF7 cells (Homo sapiens, MCF7, 72 h). With `COc1c(-c2cscn2)oc2c(CC=C(C)C)c(O)c(CC=C(C)C)c(O)c2c1=O` [Compound 43, 2-(thiazol-4-yl)-5,7-dihydroxy-3-methoxy-6,8-di(3-methyl-2-buten-1-yl)-4H-benzopyran-4-one], the IC50 in the test on MDA-MB-231 cells (Homo sapiens, MDA-MB-231, 72 h) is more than 100 µM; in the test with MCF7 cells (Homo sapiens, MCF7, 72 h) it was 25.7 µM. `COc1c(-c2ccc(C(C)C)cc2)oc2c(CC=C(C)C)c(O)c(CC=C(C)C)c(O)c2c1=O` [Compound 17, 2-(4-isopropylphenyl)-5,7-dihydroxy-3-methoxy-6,8-di(3-methyl-2-butylene-1-yl)-4H-benzopyran-4-one]: the IC50 in the test on MDA-MB-231 cells (72 hours) is 25.6 µM; in the test with MCF7 cells (72 hours), 40.1 µM.

On to `COc1c(-c2ccc(Cl)c(Cl)c2)oc2c(CC=C(C)C)c(O)c(CC=C(C)C)c(O)c2c1=O` [Compound 12, 2-(3,4-dichlorophenyl)-5,7-dihydroxy-3-methoxy-6,8-di(3-methyl-2-butylene-1-yl)-4H-benzopyran-4-one], for which the figures for the IC50 in the test on MDA-MB-231 cells (72 hours) and in the test on MCF7 cells (72 hours) were 16.1 µM and more than 100 µM, respectively.

The values are drawn from patent US9090583B2, “Benzopyrone estrogen receptor regulator” (BEIJING SHENOGEN PHARMA GROUP LTD., priority 2010, dated 2015).
